Measured values published in article PMC7016952, “Characterization of the Menin-MLL Interaction as Therapeutic Cancer Target” (Cancers, 2020).

How the values were obtained:
CYP enzymes = conditions: cited from earlier work
menin-MLL interaction = target: T1, menin-MLL interaction (Homo sapiens, UniProt O00255); set-up: method as in PMID 31253180; conditions: read-out: Potency IC50 Menin-MLL binding; TR-FRET; previously reported; cited from earlier work
T1 construct: recombinant full length, His-tagged menin
T1 sequence (O00255 1-610): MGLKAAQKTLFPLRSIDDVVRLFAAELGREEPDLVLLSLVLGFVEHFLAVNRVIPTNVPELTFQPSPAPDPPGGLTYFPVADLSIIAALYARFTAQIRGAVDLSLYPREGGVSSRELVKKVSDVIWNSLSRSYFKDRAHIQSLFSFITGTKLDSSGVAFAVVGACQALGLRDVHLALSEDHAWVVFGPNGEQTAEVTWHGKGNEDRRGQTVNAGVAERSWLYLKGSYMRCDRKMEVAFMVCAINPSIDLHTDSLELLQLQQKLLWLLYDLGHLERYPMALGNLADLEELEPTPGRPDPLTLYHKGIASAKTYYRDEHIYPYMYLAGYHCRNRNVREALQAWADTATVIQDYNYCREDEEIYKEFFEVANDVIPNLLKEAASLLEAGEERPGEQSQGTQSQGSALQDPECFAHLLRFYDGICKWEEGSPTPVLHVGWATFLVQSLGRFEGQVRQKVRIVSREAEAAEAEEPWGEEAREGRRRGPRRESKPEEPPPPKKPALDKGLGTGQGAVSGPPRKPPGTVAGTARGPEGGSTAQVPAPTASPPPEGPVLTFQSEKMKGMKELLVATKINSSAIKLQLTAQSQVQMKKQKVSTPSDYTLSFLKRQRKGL

menin = target: T2, menin (Homo sapiens, UniProt O00255); assay: Isothermal Titration Calorimetry (ITC) on purified menin; assay type: binding
T2 construct: purified menin (1–615 with GST-tag cleaved as described above); GST (TEV cleavable) (N, cleaved yes); made in house; host or cells: E. coli BL21 (DE3)
T2 sequence (O00255 1-615 isoform O00255-1): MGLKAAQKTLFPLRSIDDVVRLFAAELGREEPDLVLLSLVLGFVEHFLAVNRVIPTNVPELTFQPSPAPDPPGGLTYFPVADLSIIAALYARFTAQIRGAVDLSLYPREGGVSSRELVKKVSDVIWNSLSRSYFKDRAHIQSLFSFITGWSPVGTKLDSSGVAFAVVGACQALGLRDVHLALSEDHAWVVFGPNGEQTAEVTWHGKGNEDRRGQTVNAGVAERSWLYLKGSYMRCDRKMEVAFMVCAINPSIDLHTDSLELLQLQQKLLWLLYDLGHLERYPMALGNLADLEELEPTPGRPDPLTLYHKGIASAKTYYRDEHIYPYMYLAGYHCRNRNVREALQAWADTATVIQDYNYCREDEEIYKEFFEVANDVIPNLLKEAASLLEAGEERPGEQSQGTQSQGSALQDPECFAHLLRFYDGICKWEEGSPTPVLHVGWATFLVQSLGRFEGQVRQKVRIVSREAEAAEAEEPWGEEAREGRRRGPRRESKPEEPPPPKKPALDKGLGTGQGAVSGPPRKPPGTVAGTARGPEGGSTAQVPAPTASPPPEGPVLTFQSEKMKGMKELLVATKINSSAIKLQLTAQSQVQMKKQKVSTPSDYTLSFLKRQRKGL
Description: Cloning of expression vectors for recombinant menin was performed as follows. […] Proteins were expressed in E. coli BL21 (DE3) following 0.1 mM IPTG induction at 17 °C overnight. For purification, cell pellets were resuspended in buffer A (50 mM Tris pH 7.5, 300 mM NaCl, 2 mM DTT). Cells were lysed using a high pressure Microfluidics apparatus and the cell debris pelleted by centrifugation. The supernatant was applied to a GST column (GE Healthcare, Chicago, IL, USA), washed with two column volumes of washing buffer A and eluted with Buffer B (Buffer A plus 15 mM reduced glutathione). If necessary, the purification tag was cleaved off with the addition of His-TEV protease (1:20 mass ratio) during overnight incubation in buffer A. His-TEV was removed by IMAC column rebinding and final protein purification of either GST-cleaved or uncleaved menin-1 was performed by size exclusion chromatography using a HiLoad 16/60 Superdex 200 (GE Healthcare) column in buffer C (Buffer A but 50 mM NACl).
The compound was dissolved in 100% DMSO to a concentration of 10 mM and subsequently diluted to a final concentration of 5 µM in ITC Buffer. Isothermal Titration Calorimetry (ITC) was performed at 25 °C in a Microcal PEAQ-ITC (Malvern Panalytical). […] Reference Power was set to 6 μcal/s. Data were collected on high feedback mode. Analysis was performed with a single binding site model in the Microcal PEAQ-ITC Analysis Software (Malvern Panalytical).

[1] = cited from earlier work
LNCaP cells = assay: RNA-seq after R1881 stimulation, LNCaP; assay type: cell-based
Description: Total RNA was isolated using RNeasy-Plus Mini kit (Qiagen, Hilden, Germany). RNA (1 μg) was reverse transcribed using SuperScript III First-Strand Synthesis SuperMix (Life Technologies) and the generated cDNA was analyzed with commercial primers (Supplementary Materials Table S1) by qRT-PCR using TaqMan Fast Advanced Master Mix (Life Technologies). For the RNA-seq study, ZR-75-1, BT474, PANC-1, MiaPaCa-2, 22RV1, JMSU-1, DLD-1, SW1463, LoVo and G401 cells were treated with 5 µM BAY-155 or DMSO for 48 h prior to RNA extraction. After 48 h of 5 µM BAY-155 or DMSO treatment, MCF7, VCaP and LNCaP cells were stimulated for further 12 h with 0.1 nM of E2 (ß-Estradiol) or 1 nM R1881, respectively. MCF7, VCaP and LNCaP cells were cultured in starvation medium (containing 5 µM BAY-155 or DMSO) 6 h before stimulation. RNA was isolated using RNeasy-Plus Mini kit (Qiagen). The purified RNA was used for library preparation (Illumina, San Diego, CA, USA. TruSeq Stranded mRNA Kit) and the generated libraries were sequenced (Illumina, HiSeq2500 HTv4, SR, dual-indexing, 50 cycles).
RNA-seq reads were aligned to hg38 using STAR aligner. Protein-coding genes with more than 10 reads in more than three samples were used for the analysis (total samples N = 86; genes N = 13,003). DESeq2 was used to find genes differentially expressed upon treatment by the menin inhibitor in each cell line compared to DMSO or hormonal treatment (for MCF-7, LNCaP and VCaP cell lines). […] GSEA analysis was run on the pre-ranked list based on logFC in prostate (VCaP and LNCaP) and breast (MCF7) cell lines. Data are available at GEO under accession number GSE136272.

CYP 1A2 = CYP 1A2 (Homo sapiens, UniProt P05177); conditions: cited from earlier work
Sequence of CYP 1A2 (P05177 whole entry): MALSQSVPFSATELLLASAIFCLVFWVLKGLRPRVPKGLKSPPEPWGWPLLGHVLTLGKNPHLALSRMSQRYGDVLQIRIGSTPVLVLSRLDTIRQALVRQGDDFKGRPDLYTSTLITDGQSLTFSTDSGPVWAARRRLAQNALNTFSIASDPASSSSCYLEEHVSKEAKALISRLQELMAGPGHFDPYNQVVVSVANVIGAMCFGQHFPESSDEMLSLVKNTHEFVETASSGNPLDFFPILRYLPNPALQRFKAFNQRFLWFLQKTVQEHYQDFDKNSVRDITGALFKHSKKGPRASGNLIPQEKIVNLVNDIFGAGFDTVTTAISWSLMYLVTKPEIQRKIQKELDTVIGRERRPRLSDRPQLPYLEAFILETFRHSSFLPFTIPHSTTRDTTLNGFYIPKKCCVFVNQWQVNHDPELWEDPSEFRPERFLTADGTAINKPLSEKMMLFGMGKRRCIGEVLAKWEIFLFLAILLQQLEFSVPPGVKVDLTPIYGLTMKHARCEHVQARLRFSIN

Cc1c(CN2CCC3(CC2)CN(c2ncnc4sc(CC(F)(F)F)cc24)C3)ccc2c1cc(C#N)n2CC(N)=O [BAY-155]
inhibition of CYP enzymes (in words) (CYP enzymes): no inhibition | IC50 (menin-MLL interaction): 8 nM | Kd (menin): 75 nM | stoichiometry factor N (menin; ITC): 1.06 | Caco2 permeability Papp(A-B) ([1]; Caco-2, pH 7.2): 26.4 nm/s | Caco2 permeability efflux ratio ([1]; Caco-2): 6.4 | GSEA of androgen-regulated gene sets (LNCaP cells): significant reversal of androgen-induced gene expression changes | genes down-regulated by androgen stimulation that were reversed (LNCaP cells; 5 µM, R1881): 141 genes | genes up-regulated by androgen stimulation that were reversed (LNCaP cells; 5 µM, R1881): 24 genes | IC50 (CYP 1A2): > 20 µM
